# Results published in ChEMBL document CHEMBL4819123, “Pulchinenosides: Correlation of surface activity-cytotoxicity and hepatocyte apoptosis mechanism study” (Bioorg Med Chem Lett, 2021).
# Columns and labels:
# L02 [1] = test: Induction of cell cycle arrest in human L02 cells assessed as G2/M phase accumulation at 24 uM by PI staining based flow cytometry analysis (reference value: 8 %); settings: l02, 24 µM
# L02 [2] = test: Induction of apoptosis in human L02 cells assessed as early apoptotic cells at 26 uM by annexin-V-FITC/PI staining based flow cytometry analysis (reference value: 3.81 %); assay type: cell-based; settings: l02, 26 µM
# L02 [3] = test: Induction of cell cycle arrest in human L02 cells assessed as G0/G1 phase accumulation at 18 uM by PI staining based flow cytometry analysis (reference value: 53.77 %); settings: l02, 18 µM
# [4] = Oil-water partition coefficient, logP of compound; assay type: physicochemical
# L02 [5] = test: Induction of apoptosis in human L02 cells assessed as early apoptotic cells at 18 uM by annexin-V-FITC/PI staining based flow cytometry analysis (reference value: 3.81 %); assay type: cell-based; settings: l02, 18 µM
# L02 [6] = test: Induction of apoptosis in human L02 cells assessed as late apoptotic cells at 26 uM by annexin-V-FITC/PI staining based flow cytometry analysis (reference value: 0.92 %); assay type: cell-based; settings: l02, 26 µM
# L02 [7] = test: Cytotoxicity against human L02 cells by MTT assay; assay type: cell-based
# L02 [8] = test: Induction of cell cycle arrest in human L02 cells assessed as G2/M phase accumulation at 26 uM by PI staining based flow cytometry analysis (reference value: 8 %); settings: l02, 26 µM
# L02 [9] = test: Induction of apoptosis in human L02 cells assessed as late apoptotic cells at 24 uM by annexin-V-FITC/PI staining based flow cytometry analysis (reference value: 0.92 %); assay type: cell-based; settings: l02, 24 µM
# [10] = Hemolytic activity in rabbit erythrocytes; assay type: ADME, cell-based, Oryctolagus cuniculus, Erythrocyte; settings: read-out: HD50 (the source's name)
# L02 [11] = test: Induction of cell cycle arrest in human L02 cells assessed as S phase accumulation at 18 uM by PI staining based flow cytometry analysis (reference value: 38.23 %); settings: l02, 18 µM
# L02 [12] = test: Induction of cell cycle arrest in human L02 cells assessed as G0/G1 phase accumulation at 24 uM by PI staining based flow cytometry analysis (reference value: 53.77 %); settings: l02, 24 µM
# L02 [13] = test: Induction of cell cycle arrest in human L02 cells assessed as S phase accumulation at 26 uM by PI staining based flow cytometry analysis (reference value: 38.23 %); settings: l02, 26 µM
# L02 [14] = test: Induction of cell cycle arrest in human L02 cells assessed as G2/M phase accumulation at 18 uM by PI staining based flow cytometry analysis (reference value: 8 %); settings: l02, 18 µM
# L02 [15] = test: Cytotoxicity against human L02 cells assessed as increase in LDH leakage by LDH assay; assay type: cell-based
# L02 [16] = test: Induction of cell cycle arrest in human L02 cells assessed as G0/G1 phase accumulation at 26 uM by PI staining based flow cytometry analysis (reference value: 53.77 %); settings: l02, 26 µM
# L02 [17] = test: Induction of apoptosis in human L02 cells assessed as early apoptotic cells at 24 uM by annexin-V-FITC/PI staining based flow cytometry analysis (reference value: 3.81 %); assay type: cell-based; settings: l02, 24 µM
# L02 [18] = test: Induction of cell cycle arrest in human L02 cells assessed as S phase accumulation at 24 uM by PI staining based flow cytometry analysis (reference value: 38.23 %); settings: l02, 24 µM
# L02 [19] = test: Induction of apoptosis in human L02 cells assessed as late apoptotic cells at 18 uM by annexin-V-FITC/PI staining based flow cytometry analysis (reference value: 0.92 %); assay type: cell-based; settings: l02, 18 µM
# L02 [20] = test: Induction of cell cycle arrest in human L02 cells assessed as G0/G1 phase accumulation at 6 uM by PI staining based flow cytometry analysis (reference value: 53.77 %); settings: l02, 6 µM
# L02 [21] = test: Induction of apoptosis in human L02 cells assessed as late apoptotic cells at 10 uM by annexin-V-FITC/PI staining based flow cytometry analysis (reference value: 0.92 %); assay type: cell-based; settings: l02, 10 µM
# L02 [22] = test: Induction of cell cycle arrest in human L02 cells assessed as S phase accumulation at 6 uM by PI staining based flow cytometry analysis (reference value: 38.23 %); settings: l02, 6 µM
# L02 [23] = test: Induction of apoptosis in human L02 cells assessed as early apoptotic cells at 6 uM by annexin-V-FITC/PI staining based flow cytometry analysis (reference value: 3.81 %); assay type: cell-based; settings: l02, 6 µM
# L02 [24] = test: Induction of apoptosis in human L02 cells assessed as increase in cleaved caspase 8 level at 8 to 12 ug/ml measured after 24 hrs by Western blot analysis; assay type: cell-based; settings: l02, 24 h, dose 8-12 µg/ml
# L02 [25] = test: Induction of apoptosis in human L02 cells assessed as upregulation of FAS expression at 8 to 12 ug/ml measured after 24 hrs by Western blot analysis; assay type: cell-based; settings: l02, 24 h, dose 8-12 µg/ml
# L02 [26] = test: Induction of apoptosis in human L02 cells assessed as late apoptotic cells at 6 uM by annexin-V-FITC/PI staining based flow cytometry analysis (reference value: 0.92 %); assay type: cell-based; settings: l02, 6 µM
# L02 [27] = test: Induction of cell cycle arrest in human L02 cells assessed as S phase accumulation at 10 uM by PI staining based flow cytometry analysis (reference value: 38.23 %); settings: l02, 10 µM
# L02 [28] = test: Induction of apoptosis in human L02 cells assessed as late apoptotic cells at 8 uM by annexin-V-FITC/PI staining based flow cytometry analysis (reference value: 0.92 %); assay type: cell-based; settings: l02, 8 µM
# L02 [29] = test: Induction of apoptosis in human L02 cells assessed as early apoptotic cells at 10 uM by annexin-V-FITC/PI staining based flow cytometry analysis (reference value: 3.81 %); assay type: cell-based; settings: l02, 10 µM
# L02 [30] = test: Induction of cell cycle arrest in human L02 cells assessed as G0/G1 phase accumulation at 10 uM by PI staining based flow cytometry analysis (reference value: 53.77 %); settings: l02, 10 µM
# L02 [31] = test: Induction of apoptosis in human L02 cells assessed as decrease in caspase 8 level at 8 to 12 ug/ml measured after 24 hrs by Western blot analysis; assay type: cell-based; settings: l02, 24 h, dose 8-12 µg/ml
# L02 [32] = test: Induction of cell cycle arrest in human L02 cells assessed as G2/M phase accumulation at 10 uM by PI staining based flow cytometry analysis (reference value: 8 %); settings: l02, 10 µM
# L02 [33] = test: Induction of cell cycle arrest in human L02 cells assessed as G2/M phase accumulation at 6 uM by PI staining based flow cytometry analysis (reference value: 8 %); settings: l02, 6 µM
# L02 [34] = test: Induction of cell cycle arrest in human L02 cells assessed as S phase accumulation at 8 uM by PI staining based flow cytometry analysis (reference value: 38.23 %); settings: l02, 8 µM
# L02 [35] = test: Induction of apoptosis in human L02 cells assessed as decrease in ratio of Bcl-2/Bax at 8 to 12 ug/ml measured after 24 hrs by Western blot analysis; assay type: cell-based; settings: l02, 24 h, dose 8-12 µg/ml
# L02 [36] = test: Induction of cell cycle arrest in human L02 cells assessed as G2/M phase accumulation at 8 uM by PI staining based flow cytometry analysis (reference value: 8 %); settings: l02, 8 µM
# L02 [37] = test: Induction of apoptosis in human L02 cells assessed as early apoptotic cells at 8 uM by annexin-V-FITC/PI staining based flow cytometry analysis (reference value: 3.81 %); assay type: cell-based; settings: l02, 8 µM
# L02 [38] = test: Induction of apoptosis in human L02 cells assessed as decrease in caspase 9 level at 8 to 12 ug/ml measured after 24 hrs by Western blot analysis; assay type: cell-based; settings: l02, 24 h, dose 8-12 µg/ml
# L02 [39] = test: Induction of cell cycle arrest in human L02 cells assessed as G0/G1 phase accumulation at 8 uM by PI staining based flow cytometry analysis (reference value: 53.77 %); settings: l02, 8 µM
logP [4],Structure (SMILES),Activity (L02 [1]),Activity (L02 [2]),Activity (L02 [3]),Activity (L02 [5]),Activity (L02 [6]),IC50 (L02 [7]),Activity (L02 [8]),Activity (L02 [9]),HC50 [10],Activity (L02 [11]),Activity (L02 [12]),Activity (L02 [13]),Activity (L02 [14]),Activity (L02 [15]),Activity (L02 [16]),Activity (L02 [17]),Activity (L02 [18]),Activity (L02 [19]),other results
0.0406,C[C@@H]1O[C@@H](O[C@H]2[C@H](O[C@H]3CC[C@]4(C)[C@H]5CC=C6[C@@H]7CC(C)(C)CC[C@]7(C(=O)O)CC[C@@]6(C)[C@]5(C)CC[C@H]4C3(C)C)OC[C@H](O[C@@H]3O[C@H](CO)[C@@H](O)[C@H](O)[C@H]3O)[C@@H]2O)[C@H](O)[C@H](O)[C@H]1O [HEDERACOLCHISIDE A1],–,–,–,–,–,7.13 µM,–,–,3.24 µM,–,–,–,–,Toxic,–,–,–,–,Activity (L02 [20]): 62.05%; Activity (L02 [21]): 94.1%; Activity (L02 [22]): 29.95%; Activity (L02 [23]): 4.59%; Activity (L02 [24]): Toxic; Activity (L02 [25]): Toxic; Activity (L02 [26]): 3.11%; Activity (L02 [27]): 58.44%; Activity (L02 [28]): 38.6%; Activity (L02 [29]): 3.51%; Activity (L02 [30]): 39.69%; Activity (L02 [31]): Toxic; Activity (L02 [32]): 1.88%; Activity (L02 [33]): 8%; Activity (L02 [34]): 32.66%; Activity (L02 [35]): Toxic; Activity (L02 [36]): 2%; Activity (L02 [37]): 17.6%; Activity (L02 [38]): Toxic; Activity (L02 [39]): 67.33%
0.115,C[C@@H]1O[C@@H](O[C@H]2[C@H](O[C@H]3CC[C@@]4(C)[C@@H](CC[C@]5(C)[C@@H]4CC=C4[C@@H]6CC(C)(C)CC[C@]6(C(=O)O)CC[C@]45C)[C@]3(C)CO)OC[C@H](O[C@@H]3O[C@H](CO)[C@@H](O)[C@H](O)[C@H]3O)[C@@H]2O)[C@H](O)[C@H](O)[C@H]1O [HEDERACOLCHISIDE A],61.63%,2.2%,58.3%,13.7%,94.9%,21.1 µM,8%,10.3%,6.83 µM,40.23%,7.96%,30.28%,1.47%,Toxic,61.72%,15.9%,30.41%,4.61%,–

Structure (SMILES),logP [4],Activity (L02 [1]),Activity (L02 [2]),Activity (L02 [3]),Activity (L02 [5]),Activity (L02 [6]),IC50 (L02 [7]),Activity (L02 [8]),Activity (L02 [9]),HC50 [10],Activity (L02 [11]),Activity (L02 [12]),Activity (L02 [13]),Activity (L02 [14]),Activity (L02 [15]),Activity (L02 [16]),Activity (L02 [17]),Activity (L02 [18]),Activity (L02 [19]),other results
C[C@@H]1O[C@@H](O[C@H]2[C@H](O[C@H]3CC[C@@]4(C)[C@@H](CC[C@]5(C)[C@@H]4CC=C4[C@@H]6CC(C)(C)CC[C@]6(C(=O)O)CC[C@]45C)[C@]3(C)CO)OC[C@H](O)[C@@H]2O)[C@H](O)[C@H](O)[C@H]1O [ALPHA-HEDERIN],0.0672,8%,1.98%,61%,16.84%,94.2%,21 µM,6.72%,15.5%,9.04 µM,31%,59.52%,40.88%,8%,Toxic,52.42%,17%,32.48%,8.18%,–
